Measured values from ChEMBL document CHEMBL1671651, “Azithromycin in Pseudomonas aeruginosa biofilms: bactericidal activity and selection of nfxB mutants” (2009).
Values after ≈ are worked out from the molar mass of the structure shown.

What was measured:
Assay type in all cases: functional
Pseudomonas aeruginosa [1] = test: Antimicrobial activity against Pseudomonas aeruginosa PAO1 biofilm by Etest method
Pseudomonas aeruginosa [2] = test: Antimicrobial activity against mutS::lox-deficient Pseudomonas aeruginosa PAOMS biofilm by Etest method
Pseudomonas aeruginosa [3] = test: Antimicrobial activity against mucA::lox-deficient Pseudomonas aeruginosa PAOMA biofilm by Etest method
Pseudomonas aeruginosa [4] = test: Antimicrobial activity against mucA::lox, mutS::lox-deficient Pseudomonas aeruginosa PAOMSA biofilm by Etest method
Pseudomonas aeruginosa [5] = test: Antimicrobial activity against nfxB gene-deficient Pseudomonas aeruginosa PAONB biofilm by Etest method
Pseudomonas aeruginosa [6] = test: Antimicrobial activity against mutS::lox,nfxB gene-deficient Pseudomonas aeruginosa PAOMSNB biofilm by Etest method
Pseudomonas aeruginosa [7] = test: Antimicrobial activity against mexD::lox-deficient Pseudomonas aeruginosa PAOMxD biofilm by Etest method
Pseudomonas aeruginosa [8] = test: Antimicrobial activity against mutS::lox,mexD::lox-deficient Pseudomonas aeruginosa PAOMSMxD biofilm by Etest method
Pseudomonas aeruginosa [9] = test: Antimicrobial activity against Pseudomonas aeruginosa PAO1 A biofilm harboring duplication mutation at nucleotide 333 in nfxB gene selected at 0.5 ug/ml of azithromycin by Etest method
Pseudomonas aeruginosa [10] = test: Antimicrobial activity against Pseudomonas aeruginosa PAO1 A biofilm harboring deletion mutation at nucleotide 231-244 in nfxB gene selected at 1 ug/ml of azithromycin after 4 passages by Etest method
Pseudomonas aeruginosa [11] = test: Antimicrobial activity against Pseudomonas aeruginosa PAO1 A biofilm harboring nfxB T248C mutant gene selected at 4 ug/ml of azithromycin after 4 passages by Etest method
Pseudomonas aeruginosa [12] = test: Antimicrobial activity against mucA::lox-deficient Pseudomonas aeruginosa PAOMAB biofilm harboring nfxB G125T mutant gene selected at 0.5 ug/ml of azithromycin after 1 passages by Etest method
Pseudomonas aeruginosa [13] = test: Antimicrobial activity against mucA::lox-deficient Pseudomonas aeruginosa PAOMAA biofilm harboring nfxB C25T mutant gene selected at 1 ug/ml of azithromycin after 2 passages by Etest method
Pseudomonas aeruginosa [14] = test: Antimicrobial activity against mutS::lox-deficient Pseudomonas aeruginosa PAOMSB biofilm harboring nfxB T380C mutant gene selected at 0.5 ug/ml of azithromycin after 2 passages by Etest method
Pseudomonas aeruginosa [15] = test: Antimicrobial activity against mutS::lox-deficient Pseudomonas aeruginosa PAOMSA biofilm harboring nfxB C116T mutant gene selected at 1 ug/ml of azithromycin after 1 passages by Etest method
Pseudomonas aeruginosa [16] = test: Antimicrobial activity against mutS::lox-deficient Pseudomonas aeruginosa PAOMSA biofilm harboring nfxB T533C mutant gene selected at 4 ug/ml of azithromycin after 2 passages by Etest method
Pseudomonas aeruginosa [17] = test: Antimicrobial activity against mutS::lox-deficient Pseudomonas aeruginosa PAOMSB biofilm harboring deletion od C534 in nfxB mutant gene selected at 4 ug/ml of azithromycin after 2 passages by Etest method
Pseudomonas aeruginosa [18] = test: Antimicrobial activity against mutS::lox-deficient Pseudomonas aeruginosa PAOMSA biofilm harboring nfxB T86C mutant gene selected at 4 ug/ml of azithromycin after 3 passages by Etest method
Pseudomonas aeruginosa [19] = test: Antimicrobial activity against mutS::lox-deficient Pseudomonas aeruginosa PAOMSB biofilm harboring nfxB T41C mutant gene selected at 4 ug/ml of azithromycin after 3 passages by Etest method
Pseudomonas aeruginosa [20] = test: Antimicrobial activity against mutS::lox-deficient Pseudomonas aeruginosa PAOMSA biofilm harboring nfxB T86C mutant gene selected at 4 ug/ml of azithromycin after 4 passages by Etest method
Pseudomonas aeruginosa [21] = test: Antimicrobial activity against mutS::lox-deficient Pseudomonas aeruginosa PAOMSB biofilm harboring nfxB T562C mutant gene selected at 4 ug/ml of azithromycin after 4 passages by Etest method
Pseudomonas aeruginosa [22] = test: Antimicrobial activity against mutS::lox-deficient Pseudomonas aeruginosa PAOMSA biofilm harboring nfxB G461A mutant gene selected at 4 ug/ml of azithromycin after 5 passages by Etest method
Pseudomonas aeruginosa [23] = test: Antimicrobial activity against mutS::lox-deficient Pseudomonas aeruginosa PAOMSB biofilm harboring nfxB C116T mutant gene selected at 4 ug/ml of azithromycin after 5 passages by Etest method
Pseudomonas aeruginosa [24] = test: Antimicrobial activity against mutS::lox-deficient Pseudomonas aeruginosa PAOMSA biofilm harboring nfxB G539A mutant gene selected at 4 ug/ml of azithromycin after 6 passages by Etest method
Pseudomonas aeruginosa [25] = test: Antimicrobial activity against mutS::lox-deficient Pseudomonas aeruginosa PAOMSB biofilm harboring nfxB T77C mutant gene selected at 4 ug/ml of azithromycin after 6 passages by Etest method
Pseudomonas aeruginosa [26] = test: Antimicrobial activity against mucA::lox, mutS::lox-deficient Pseudomonas aeruginosa PAOMSAA biofilm harboring nfxB C89T mutant gene selected at 0.5 ug/ml of azithromycin after 3 passages by Etest method
Pseudomonas aeruginosa [27] = test: Antimicrobial activity against mucA::lox, mutS::lox-deficient Pseudomonas aeruginosa PAOMSAB biofilm harboring nfxB C25T mutant gene selected at 1 ug/ml of azithromycin after 2 passages by Etest method
Pseudomonas aeruginosa [28] = test: Antimicrobial activity against mucA::lox, mutS::lox-deficient Pseudomonas aeruginosa PAOMSAB biofilm harboring nfxB T544C mutant gene selected at 4 ug/ml of azithromycin after 1 passages by Etest method
Pseudomonas aeruginosa [29] = test: Antimicrobial activity against mucA::lox, mutS::lox-deficient Pseudomonas aeruginosa PAOMSAA biofilm harboring nfxB T86C mutant gene selected at 4 ug/ml of azithromycin after 2 passages by Etest method
Pseudomonas aeruginosa [30] = test: Antimicrobial activity against mucA::lox, mutS::lox-deficient Pseudomonas aeruginosa PAOMSAB biofilm harboring nfxB T86C mutant gene selected at 4 ug/ml of azithromycin after 2 passages by Etest method
Pseudomonas aeruginosa [31] = test: Antimicrobial activity against mucA::lox, mutS::lox-deficient Pseudomonas aeruginosa PAOMSAA biofilm harboring nfxB T77C mutant gene selected at 4 ug/ml of azithromycin after 3 passages by Etest method
Pseudomonas aeruginosa [32] = test: Antimicrobial activity against mucA::lox, mutS::lox-deficient Pseudomonas aeruginosa PAOMSAA biofilm harboring nfxB C89T mutant gene selected at 4 ug/ml of azithromycin after 6 passages by Etest method
Pseudomonas aeruginosa [33] = test: Antimicrobial activity against mucA::lox, mutS::lox-deficient Pseudomonas aeruginosa PAOMSAB biofilm harboring nfxB C89T mutant gene selected at 4 ug/ml of azithromycin after 6 passages by Etest method

Compound | MIC (Pseudomonas aeruginosa [1]) [µg/mL] | MIC (Pseudomonas aeruginosa [2]) [µg/mL] | MIC (Pseudomonas aeruginosa [5]) [µg/mL] | MIC (Pseudomonas aeruginosa [6]) [µg/mL] | MIC (Pseudomonas aeruginosa [8]) [µg/mL] | MIC (Pseudomonas aeruginosa [9]) [µg/mL] | MIC (Pseudomonas aeruginosa [10]) [µg/mL] | MIC (Pseudomonas aeruginosa [12]) [µg/mL] | MIC (Pseudomonas aeruginosa [14]) [µg/mL] | MIC (Pseudomonas aeruginosa [15]) [µg/mL] | MIC (Pseudomonas aeruginosa [20]) [µg/mL] | MIC (Pseudomonas aeruginosa [21]) [µg/mL] | MIC (Pseudomonas aeruginosa [23]) [µg/mL] | MIC (Pseudomonas aeruginosa [24]) [µg/mL] | MIC (Pseudomonas aeruginosa [26]) [µg/mL] | MIC (Pseudomonas aeruginosa [27]) [µg/mL] | MIC (Pseudomonas aeruginosa [29]) [µg/mL] | MIC (Pseudomonas aeruginosa [30]) [µg/mL] | MIC (Pseudomonas aeruginosa [31]) [µg/mL] | MIC (Pseudomonas aeruginosa [32]) [µg/mL] | further results
CO/N=C(\C(=O)N[C@@H]1C(=O)N2C(C(=O)[O-])=C(C[N+]3(C)CCCC3)CS[C@H]12)c1csc(N)n1 [CEFEPIME] | 1.5 (≈ 3.12 µM) | 1.5 (≈ 3.12 µM) | 8 (≈ 16.6 µM) | 8 (≈ 16.6 µM) | 1.5 (≈ 3.12 µM) | 12 | 12 | 12 | 12 | 12 | 6 | 6 | 12 | 12 | 12 | 8 | 16 | 12 | 12 | 16 | MIC (Pseudomonas aeruginosa [3]): 1.5 µg/mL (≈ 3.12 µM); MIC (Pseudomonas aeruginosa [4]): 1.5 µg/mL (≈ 3.12 µM); MIC (Pseudomonas aeruginosa [7]): 1.5 µg/mL (≈ 3.12 µM); MIC (Pseudomonas aeruginosa [11]): 12 µg/mL; MIC (Pseudomonas aeruginosa [13]): 12 µg/mL; MIC (Pseudomonas aeruginosa [16]): 8 µg/mL; MIC (Pseudomonas aeruginosa [17]): 12 µg/mL; MIC (Pseudomonas aeruginosa [18]): 16 µg/mL; MIC (Pseudomonas aeruginosa [19]): 8 µg/mL; MIC (Pseudomonas aeruginosa [22]): 8 µg/mL; MIC (Pseudomonas aeruginosa [25]): 12 µg/mL; MIC (Pseudomonas aeruginosa [28]): 12 µg/mL; MIC (Pseudomonas aeruginosa [33]): 16 µg/mL
C[C@@H](O)[C@H]1C(=O)N2C(C(=O)O)=C(SCCNC=N)C[C@H]12 [IMIPENEM ANHYDROUS] | 1.5 (≈ 5.01 µM) | 1.5 (≈ 5.01 µM) | 0.19 (≈ 0.635 µM) | 0.5 (≈ 1.67 µM) | 1.5 (≈ 5.01 µM) | 0.25 | 0.38 | 0.25 | 0.25 | 1 | 0.19 | 1 | 0.38 | 0.25 | 0.38 | 0.25 | 0.38 | 0.25 | 1 | 0.38 | MIC (Pseudomonas aeruginosa [3]): 1 µg/mL (≈ 3.34 µM); MIC (Pseudomonas aeruginosa [4]): 1.5 µg/mL (≈ 5.01 µM); MIC (Pseudomonas aeruginosa [7]): 1.5 µg/mL (≈ 5.01 µM); MIC (Pseudomonas aeruginosa [11]): 0.38 µg/mL; MIC (Pseudomonas aeruginosa [13]): 0.38 µg/mL; MIC (Pseudomonas aeruginosa [16]): 0.38 µg/mL; MIC (Pseudomonas aeruginosa [17]): 1 µg/mL; MIC (Pseudomonas aeruginosa [18]): 0.25 µg/mL; MIC (Pseudomonas aeruginosa [19]): 1 µg/mL; MIC (Pseudomonas aeruginosa [22]): 1.5 µg/mL; MIC (Pseudomonas aeruginosa [25]): 0.5 µg/mL; MIC (Pseudomonas aeruginosa [28]): 1 µg/mL; MIC (Pseudomonas aeruginosa [33]): 0.38 µg/mL
CC(C)(O/N=C(\C(=O)N[C@@H]1C(=O)N2C(C(=O)[O-])=C(C[n+]3ccccc3)CS[C@H]12)c1csc(N)n1)C(=O)O [CEFTAZIDIME] | 1.5 (≈ 2.74 µM) | 1.5 (≈ 2.74 µM) | 1.5 (≈ 2.74 µM) | 1.5 (≈ 2.74 µM) | 1.5 (≈ 2.74 µM) | 1.5 | 1 | 0.5 | 1 | 1 | 1.5 | 1.5 | 1.5 | 1.5 | 1.5 | 1 | 1.5 | 2 | 2 | 1.5 | MIC (Pseudomonas aeruginosa [3]): 1.5 µg/mL (≈ 2.74 µM); MIC (Pseudomonas aeruginosa [4]): 1.5 µg/mL (≈ 2.74 µM); MIC (Pseudomonas aeruginosa [7]): 1.5 µg/mL (≈ 2.74 µM); MIC (Pseudomonas aeruginosa [11]): 1.5 µg/mL; MIC (Pseudomonas aeruginosa [13]): 1 µg/mL; MIC (Pseudomonas aeruginosa [16]): 1.5 µg/mL; MIC (Pseudomonas aeruginosa [17]): 2 µg/mL; MIC (Pseudomonas aeruginosa [18]): 2 µg/mL; MIC (Pseudomonas aeruginosa [19]): 2 µg/mL; MIC (Pseudomonas aeruginosa [22]): 2 µg/mL; MIC (Pseudomonas aeruginosa [25]): 2 µg/mL; MIC (Pseudomonas aeruginosa [28]): 2 µg/mL; MIC (Pseudomonas aeruginosa [33]): 1.5 µg/mL
O=C(O)c1cn(C2CC2)c2cc(N3CCNCC3)c(F)cc2c1=O [CIPROFLOXACIN] |  |  | 1 (≈ 3.02 µM) | 1 (≈ 3.02 µM) | 0.094 (≈ 0.284 µM) | 3 | 3 | 3 | 4 | 4 | 1 | 0.75 | 1.5 | 1 | 3 | 3 | 3 | 3 | 3 | 3 | 
COLISTIN | 2 | 2 | 1.5 | 1.5 | 2 | 1.5 | 2 | 1 | 2 | 2 | 3 | 3 | 1.5 | 1.5 | 1 | 2 | 3 | 2 | 2 | 2 | MIC (Pseudomonas aeruginosa [3]): 2 µg/mL; MIC (Pseudomonas aeruginosa [4]): 2 µg/mL; MIC (Pseudomonas aeruginosa [7]): 2 µg/mL; MIC (Pseudomonas aeruginosa [11]): 1.5 µg/mL; MIC (Pseudomonas aeruginosa [13]): 1 µg/mL; MIC (Pseudomonas aeruginosa [16]): 2 µg/mL; MIC (Pseudomonas aeruginosa [17]): 2 µg/mL; MIC (Pseudomonas aeruginosa [18]): 2 µg/mL; MIC (Pseudomonas aeruginosa [19]): 2 µg/mL; MIC (Pseudomonas aeruginosa [22]): 2 µg/mL; MIC (Pseudomonas aeruginosa [25]): 0.5 µg/mL; MIC (Pseudomonas aeruginosa [28]): 3 µg/mL; MIC (Pseudomonas aeruginosa [33]): 1 µg/mL
